Test results published in article PMC7551591, “The Effect of Resveratrol or Curcumin on Head and Neck Cancer Cells Sensitivity to the Cytotoxic Effects of Cisplatin” (Nutrients, 2020).

System: PE/CA-PJ49 tumor cells
Assay: Cell cycle phase distribution by PI flow cytometry, tumor cells
Type: cell-based, human
Conditions: 24 h, RSV 40 μM
Procedure: For analysis of cell-cycle distribution, the cells were collected after treatment, fixed with 70% ethanol for at least one hour at 4 °C. The cells were stained with propidium iodide (PI) an agent which intercalates into the major groove of double-stranded DNA and produces a highly fluorescent adduct that can be excited at 488 nm with a broad emission around 600 nm. Since PI can also bind to double-stranded RNA, it is necessary to treat the cells with RNase for optimal DNA resolution. Cells (1×10^6 cells/mL) were washed in PBS and centrifuge at 300× g, 5 min at 4 °C. The pellet of the cells were incubated for 10 min at 37 °C with 0.5 mg/sample RNase A and then was added 10 μg/sample of PI staining solution to cell pellet, mix well and incubated 10 min at 37 °C. The samples stored at 4 °C until analyzed by flow cytometry. A minimum of 20,000 events for each sample were collected using a FACS CantoII flow cytometer and ModFIT software (BectonDickinson) and used to determine the cell cycle phase distribution after debris exclusion.
The progression through the cell cycle phases induced by treatment were evaluated by flow cytometry using a FACSCanto II flow cytometer. Data analysis were performed using the ModFit 3.2 program which offers the possibility of evaluating the cell cycle phases distribution (G0/G1, S, G2 + M).

## Oc1ccc(C=Cc2cc(O)cc(O)c2)cc1 [RSV, 3,5,4′-trihydroxystilbene]
  G0/G1%: 39.05%
  G2/M%: 19.41%
